Experimental data: PubChem BioAssay (NCI)
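Each compound was tested at five concentrations against cells in 96-well plates for 48 hours. TGI marks complete inhibition of growth.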

Columns and labels:
Assay in all cases: growth of human tumour cells (NCI), 48 h
RXF 393 renal = tested on: RXF 393 renal
CCRF-CEM leukemia = tested on: CCRF-CEM leukemia
OVCAR-5 ovarian = tested on: OVCAR-5 ovarian
OVCAR-4 ovarian = tested on: OVCAR-4 ovarian
KM12 colon = tested on: KM12 colon
NCI-H522 lung = tested on: NCI-H522 lung
SK-MEL-2 melanoma = tested on: SK-MEL-2 melanoma
HCC-2998 colon = tested on: HCC-2998 colon
NCI-H23 lung = tested on: NCI-H23 lung
NCI/ADR-RES ovarian = tested on: NCI/ADR-RES ovarian
MDA-MB-435 = tested on: MDA-MB-435

| Compound | TGI (RXF 393 renal) | TGI (CCRF-CEM leukemia) | TGI (OVCAR-5 ovarian) | TGI (OVCAR-4 ovarian) | TGI (KM12 colon) | TGI (NCI-H522 lung) | TGI (SK-MEL-2 melanoma) | TGI (HCC-2998 colon) | TGI (NCI-H23 lung) | TGI (NCI/ADR-RES ovarian) | TGI (MDA-MB-435) |
| --- | --- | --- | --- | --- | --- | --- | --- | --- | --- | --- | --- |
| ClCc1nc2ccccc2[nH]1 | > 100 µM | > 100 µM | > 100 µM | > 100 µM | > 100 µM | > 100 µM | > 100 µM | > 100 µM | > 100 µM | > 100 µM | > 100 µM |
| Cc1nc(-c2ccccc2)cn2c1nc1ccccc12 | 55.5 µM | > 100 µM | > 31.6 µM | 65.4 µM | > 70.3 µM | > 66.8 µM | 43.5 µM | > 100 µM | > 77.7 µM | 55.7 µM | 36.9 µM |
| CCOC(=O)c1c(O)cn2c1[nH]c1cccc3cccc2c31 | > 100 µM | > 100 µM | > 100 µM | > 100 µM | > 100 µM | > 100 µM | > 100 µM | > 100 µM | > 100 µM | > 100 µM | > 100 µM |
| Cc1cc(N(CCC#N)CCC#N)ccc1/C(N=Nc1ccc([N+](=O)[O-])cc1)=N\NC(=O)c1cc(Cl)ccc1O | > 100 µM | > 100 µM | > 100 µM | > 100 µM | > 100 µM | 23.9 µM | > 100 µM | 46.2 µM | 39.1 µM | > 100 µM | > 100 µM |
| O=C(Nc1ccccc1)N(CCN(Cc1ccccc1)C(=O)Nc1ccccc1)CCN(Nc1ccccc1)C(=O)Nc1ccccc1 | > 100 µM | > 100 µM | > 100 µM | > 100 µM | > 100 µM | > 100 µM | > 100 µM | > 100 µM | > 100 µM | > 100 µM | > 100 µM |
| CCn1c(SCC(=O)N/N=C2\SCC(=O)N2c2ccc(C)cc2)nc2ccccc2c1=O | 53.8 µM | > 100 µM | 48.2 µM | 48.2 µM | 47.3 µM | 62.1 µM | > 100 µM | > 100 µM | 42.2 µM | 49.7 µM | 43.8 µM |
| COC(=O)C1=C(C)NC(=O)N2[C@@H](CCOCc3ccccc3)CC[C@@H]12 | > 50 µM | > 50 µM | > 50 µM | > 50 µM | > 50 µM | > 50 µM | > 50 µM | > 50 µM | > 50 µM | > 50 µM | > 50 µM |
| O=C(Cc1ccc2ccccc2c1)NCc1ccc(C(=O)NCCc2ccccc2)cc1 | > 100 µM | > 100 µM | > 100 µM | > 100 µM | > 100 µM | > 100 µM | > 100 µM | > 100 µM | > 100 µM | > 100 µM | > 100 µM |
| CN(O)C(=O)CCC(NC(=O)CCC(N)C(=O)O)C(=O)NCC(=O)O (configuration not stated) | > 100 µM | > 100 µM | > 100 µM | > 100 µM | > 100 µM | > 100 µM | > 100 µM | > 100 µM | > 100 µM | > 100 µM | > 100 µM |
| COc1ccc(/[N+]([O-])=C/c2ccc(OC(=S)S)c(OC)c2)cc1 | 50.9 µM | – | > 100 µM | 49 µM | 33.3 µM | > 100 µM | > 100 µM | > 100 µM | > 100 µM | 92.3 µM | 61.1 µM |
| Fc1cc(C2=Nn3c(COc4ccccc4Cl)nnc3S/C2=C\c2ccc(Cl)cc2)c(Cl)cc1Cl | 28 µM | > 100 µM | > 100 µM | 35.9 µM | 19.6 µM | 22.6 µM | 32.3 µM | 16.3 µM | 6.33 µM | 30.1 µM | 6.3 µM |
| NC1=Nc2ccccc2Sc2nncn21 | > 100 µM | > 100 µM | > 100 µM | > 100 µM | > 100 µM | > 100 µM | > 100 µM | > 100 µM | > 100 µM | > 100 µM | > 100 µM |
| COC(=O)C1CCC(=O)N1C(c1ccc(OC)cc1)c1cc(OC)c(OC)c(OC)c1 (configuration not stated) | 0.361 µM | > 100 µM | > 100 µM | > 100 µM | 1.12 µM | 0.212 µM | > 100 µM | 0.6 µM | > 100 µM | 1.01 µM | 0.243 µM |
| CCOC(=O)CNC(=O)C(CCC(=O)N(C)O)NC(=O)CCC(N)C(=O)O (configuration not stated) | > 100 µM | > 100 µM | > 100 µM | > 100 µM | > 100 µM | > 100 µM | > 100 µM | > 100 µM | > 100 µM | > 100 µM | > 100 µM |
| C=C1C(C(=O)OC)[C@H]1C(=O)OC (some centres not stated) | > 100 µM | – | > 100 µM | > 100 µM | > 100 µM | > 100 µM | > 100 µM | > 100 µM | > 100 µM | > 100 µM | > 100 µM |
| CC(NC1=NCCO1)c1ccccc1Cl (configuration not stated) | > 100 µM | > 100 µM | > 100 µM | > 100 µM | > 100 µM | > 100 µM | > 100 µM | > 100 µM | > 100 µM | > 100 µM | > 100 µM |
| O=c1[nH]c(NCc2cccnc2)nc2nc[nH]c12 | > 100 µM | > 100 µM | > 100 µM | > 100 µM | > 100 µM | > 100 µM | > 100 µM | > 100 µM | > 100 µM | > 100 µM | > 100 µM |
| COc1ccc2c(c1)c1c3c(ccc4ncn2c43)N(CCO)CCN=1 | 0.473 µM | 0.305 µM | 0.715 µM | 0.915 µM | 1.22 µM | 0.277 µM | 0.359 µM | 0.369 µM | 0.466 µM | 1.76 µM | 0.834 µM |
| COc1ccc(C2CC(c3c(O)ccc4ccccc34)=NN2)cc1OC (configuration not stated) | 24.6 µM | > 100 µM | 18.2 µM | 20.8 µM | 11.4 µM | 8.58 µM | 30.9 µM | 6.15 µM | 13.8 µM | 9.77 µM | 11.6 µM |
| COc1ccc(S(=O)(=O)Nc2ccc(-c3csc(N4C(=O)/C(=C/c5ccccc5[N+](=O)[O-])N=C4c4ccccc4)n3)cc2)cc1Cl | > 100 µM | – | > 100 µM | > 100 µM | > 100 µM | > 100 µM | > 100 µM | 63.5 µM | 76.8 µM | > 100 µM | > 100 µM |
